Assay results: patent publication EP4741383A1, “COMPOUND AND USE THEREOF AS ANTI-CANCER DRUG” (Tyligand Bioscience (Shanghai) Limited, priority 2023, dated 2025)

Key:
Format in all cases: biochemical
Laforin = molecular target: T1, Laforin (Homo sapiens, UniProt O95278); assay: Tyrosine phosphatase selectivity (pNPP substrate), Laforin; settings: for IC50: Laforin, pNPP substrate; for IC50PTP/IC50SHP2 Laforin: selectivity ratio Laforin over SHP2
T1 construct: made in house; host or cells: E. coli
T1 sequence (O95278 1-331): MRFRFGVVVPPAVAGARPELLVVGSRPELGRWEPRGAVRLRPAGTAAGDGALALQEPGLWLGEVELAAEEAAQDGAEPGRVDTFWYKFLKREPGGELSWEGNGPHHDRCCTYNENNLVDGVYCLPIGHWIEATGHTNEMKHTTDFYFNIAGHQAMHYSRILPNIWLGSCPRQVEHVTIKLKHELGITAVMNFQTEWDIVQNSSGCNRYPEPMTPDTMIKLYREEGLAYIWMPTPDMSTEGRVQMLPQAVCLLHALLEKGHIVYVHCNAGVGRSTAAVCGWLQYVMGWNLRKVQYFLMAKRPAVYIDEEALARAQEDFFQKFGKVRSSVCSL
Method: (§1) This experiment evaluated the selectivity of the disclosed compounds against tyrosine phosphatases, including SHP1, HePTP, Laforin, LMWPTP, LYP, PTP1B, PRL2, SSU72, VHR, FAP1, STEP, CDC14A, CD45, MEG2, and PP5, all expressed and purified from E. coli.
(§2) Phosphatase activity was measured using p-nitrophenyl phosphate (pNPP) (Fisher Scientific) as the substrate in 50 mM 3,3-dimethylglutaric acid buffer (pH 7.0, containing 1 mM EDTA), with ionic strength adjusted to 0.15 M with NaCl. […] After 10-60 minutes, the reaction was quenched by adding 20 µL of 5 N NaOH. Wells without enzyme were used as controls for correction. The amount of the product, p-nitrophenol, was determined by measuring the absorbance at 405 nm using a Spectra MAX340 microplate spectrophotometer (Molecular Devices), with a molar extinction coefficient of 18000 M^-1cm^-1.
(§3) Data were analyzed using GraphPad Prism software. Dose-response curves were obtained by fitting data using the nonlinear S-curve regression Dose-response-inhibition equation, and IC50 values were calculated.

SHP1 = molecular target: T2, SHP1 (Homo sapiens, UniProt P29350); assay: Tyrosine phosphatase selectivity (pNPP substrate), SHP1; settings: for IC50: SHP1, pNPP substrate; for IC50PTP/IC50SHP2 SHP1: selectivity ratio SHP1 over SHP2
T2 construct: made in house; host or cells: E. coli
T2 sequence (P29350 whole entry): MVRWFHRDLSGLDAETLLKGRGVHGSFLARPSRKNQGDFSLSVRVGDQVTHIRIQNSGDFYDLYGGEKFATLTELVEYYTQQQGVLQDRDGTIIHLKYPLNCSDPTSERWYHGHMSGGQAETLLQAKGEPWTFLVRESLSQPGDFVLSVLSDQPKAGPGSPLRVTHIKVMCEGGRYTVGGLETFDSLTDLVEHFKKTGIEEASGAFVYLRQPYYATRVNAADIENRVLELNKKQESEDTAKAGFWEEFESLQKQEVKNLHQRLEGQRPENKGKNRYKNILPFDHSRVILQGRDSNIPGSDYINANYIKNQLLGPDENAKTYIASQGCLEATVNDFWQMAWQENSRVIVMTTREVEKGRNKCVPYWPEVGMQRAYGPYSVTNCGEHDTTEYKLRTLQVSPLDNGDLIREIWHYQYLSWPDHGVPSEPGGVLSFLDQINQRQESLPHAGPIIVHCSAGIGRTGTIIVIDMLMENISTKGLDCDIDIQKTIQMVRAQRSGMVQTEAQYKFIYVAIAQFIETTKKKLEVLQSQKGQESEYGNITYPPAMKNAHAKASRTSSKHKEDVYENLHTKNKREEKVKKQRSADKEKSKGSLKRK
Method: as §1, §2, §3

MEG2 = molecular target: T3, MEG2 (Homo sapiens, UniProt P43378); assay: Tyrosine phosphatase selectivity (pNPP substrate), MEG2; settings: for IC50: MEG2, pNPP substrate; for IC50PTP/IC50SHP2 MEG2: selectivity ratio MEG2 over SHP2
T3 construct: made in house; host or cells: E. coli
T3 sequence (P43378 1-593): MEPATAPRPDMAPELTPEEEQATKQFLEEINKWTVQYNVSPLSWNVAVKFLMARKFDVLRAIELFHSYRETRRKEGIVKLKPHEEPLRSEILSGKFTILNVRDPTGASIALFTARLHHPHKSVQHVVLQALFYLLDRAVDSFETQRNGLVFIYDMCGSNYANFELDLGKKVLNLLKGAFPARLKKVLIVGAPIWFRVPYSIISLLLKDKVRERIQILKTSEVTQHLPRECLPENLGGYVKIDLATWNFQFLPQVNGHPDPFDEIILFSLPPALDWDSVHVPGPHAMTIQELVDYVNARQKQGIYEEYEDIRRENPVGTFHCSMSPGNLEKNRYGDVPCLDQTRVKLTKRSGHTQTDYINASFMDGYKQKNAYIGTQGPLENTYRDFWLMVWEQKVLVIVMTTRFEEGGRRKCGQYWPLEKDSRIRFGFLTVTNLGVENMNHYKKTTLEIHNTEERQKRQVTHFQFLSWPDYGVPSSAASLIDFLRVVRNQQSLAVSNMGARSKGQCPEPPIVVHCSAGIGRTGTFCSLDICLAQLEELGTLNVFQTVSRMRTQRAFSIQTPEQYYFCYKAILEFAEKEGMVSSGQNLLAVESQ
Method: as §1, §2, §3

PRL2 = molecular target: T4, PRL2 (Homo sapiens, UniProt Q12974); assay: Tyrosine phosphatase selectivity (pNPP substrate), PRL2; settings: for IC50: PRL2, pNPP substrate; for IC50PTP/IC50SHP2 PRL2: selectivity ratio PRL2 over SHP2
T4 construct: made in house; host or cells: E. coli
T4 sequence (Q12974 1-167): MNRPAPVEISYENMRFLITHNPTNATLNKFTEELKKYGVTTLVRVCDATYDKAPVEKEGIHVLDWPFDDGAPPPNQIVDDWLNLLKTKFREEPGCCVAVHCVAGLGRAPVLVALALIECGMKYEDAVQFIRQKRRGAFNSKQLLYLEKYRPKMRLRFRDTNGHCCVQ
Method: as §1, §2, §3

HePTP = molecular target: T5, HePTP (Homo sapiens, UniProt P35236); assay: Tyrosine phosphatase selectivity (pNPP substrate), HePTP; settings: for IC50: HePTP, pNPP substrate; for IC50PTP/IC50SHP2 HePTP: selectivity ratio HePTP over SHP2
T5 construct: made in house; host or cells: E. coli
T5 sequence (P35236 1-360): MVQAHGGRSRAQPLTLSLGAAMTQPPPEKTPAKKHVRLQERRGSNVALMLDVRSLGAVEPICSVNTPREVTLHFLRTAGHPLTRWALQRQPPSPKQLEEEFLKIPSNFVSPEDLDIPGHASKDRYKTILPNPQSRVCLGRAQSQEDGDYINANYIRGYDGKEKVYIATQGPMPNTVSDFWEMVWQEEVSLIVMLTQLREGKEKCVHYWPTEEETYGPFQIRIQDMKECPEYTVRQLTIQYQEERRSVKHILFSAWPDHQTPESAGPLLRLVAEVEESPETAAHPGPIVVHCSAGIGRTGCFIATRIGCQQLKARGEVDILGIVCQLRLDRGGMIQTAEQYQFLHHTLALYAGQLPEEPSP
Method: as §1, §2, §3

PTP1B = molecular target: T6, PTP1B (Homo sapiens, UniProt P18031); assay: Tyrosine phosphatase selectivity (pNPP substrate), PTP1B; settings: for IC50: PTP1B, pNPP substrate; for IC50PTP/IC50SHP2 PTP1B: selectivity ratio PTP1B over SHP2
T6 construct: made in house; host or cells: E. coli
T6 sequence (P18031 1-435): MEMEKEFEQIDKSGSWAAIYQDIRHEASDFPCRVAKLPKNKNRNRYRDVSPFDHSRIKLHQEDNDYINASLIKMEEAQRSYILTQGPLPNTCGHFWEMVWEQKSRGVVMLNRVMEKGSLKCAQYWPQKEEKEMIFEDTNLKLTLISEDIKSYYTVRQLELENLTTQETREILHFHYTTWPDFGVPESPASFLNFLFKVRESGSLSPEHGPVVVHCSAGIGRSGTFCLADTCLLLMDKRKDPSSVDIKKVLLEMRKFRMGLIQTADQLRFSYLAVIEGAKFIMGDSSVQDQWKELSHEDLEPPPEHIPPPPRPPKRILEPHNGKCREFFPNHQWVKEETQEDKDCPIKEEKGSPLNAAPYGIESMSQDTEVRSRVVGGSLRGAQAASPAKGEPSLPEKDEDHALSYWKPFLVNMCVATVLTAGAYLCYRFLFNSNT
Method: as §1, §2, §3

| Compound | IC50 (Laforin) [nM] | IC50PTP/IC50SHP2 Laforin (Laforin) | IC50 (SHP1) [nM] | IC50PTP/IC50SHP2 SHP1 (SHP1) | IC50 (MEG2) [nM] | IC50PTP/IC50SHP2 MEG2 (MEG2) | IC50 (PRL2) [nM] | IC50PTP/IC50SHP2 PRL2 (PRL2) | IC50 (HePTP) [nM] | IC50PTP/IC50SHP2 HePTP (HePTP) | IC50 (PTP1B) [nM] | IC50PTP/IC50SHP2 PTP1B (PTP1B) |
| --- | --- | --- | --- | --- | --- | --- | --- | --- | --- | --- | --- | --- |
| Cn1c(-c2cccc(NC(=O)C(=O)Nc3ccc(-c4ccsc4)cc3)c2)c(I)c2cc(C(=O)O)c(O)cc21 [Example 11a-1, reference compound] | 12200 | 112 | 800 | 7.4 |  |  |  |  | 1030 | 9.5 | 2290 | 21.2 |
| O=C(Nc1ccc(-c2cc3cc(F)c(-c4nnn[nH]4)cc3n2C2CCC2)cc1)C(=O)Nc1ccc(N2CCOCC2)cc1 [Example 47] | 610 | 9.6 | 120 | 1.9 | 990 | 15.7 | > 100000 | 1587 | 800 | 12.6 | 370 | 5.8 |
| O=C(Nc1ccc(-c2oc3cc(F)c(-c4nnn[nH]4)cc3c2C2CCC2)cc1)C(=O)Nc1ccc(N2CCC3(CCOC3)CC2)cc1 [Example 125] | > 100000 | 1960.8 | 170 | 3.3 | 8540 | 167.5 | > 100000 | 1960.8 | 35900 | 703.9 | 6280 | 123.1 |
| O=C(Nc1ccc(-c2ccsc2)cc1)C(=O)Nc1ccc(-c2cc3ccc(-c4nnn[nH]4)nc3n2C2CCC2)cc1 [Example 129] | > 20000 | 339.0 | 700 | 11.9 | 7200 | 122.0 | > 50000 | 847.5 | > 20000 | 339.0 | 8500 | 144.1 |
| O=C(Nc1ccc(-c2ccsc2)cc1)C(=O)Nc1ccc(-c2oc3cc(F)c(-c4nnn[nH]4)cc3c2C2CCC2)cc1 [Example 130] | > 20000 | 800 | 600 | 24.0 | < 3000 | 120 | > 50000 | 2000 | > 20000 | 800 | 11600 | 464 |
| O=C(Nc1ccc(-c2ccsc2)cc1)C(=O)Nc1ccc(-c2cc3cnc(-c4nnn[nH]4)nc3n2C2CCC2)cc1 [Example 131] | > 20000 | 769.2 | 800 | 30.8 | 9900 | 380.8 | > 50000 | 1923.1 | 6100 | 234.6 | 4700 | 180.8 |

More lines, now with the values ahead:

| IC50 (Laforin) [nM] | IC50PTP/IC50SHP2 Laforin (Laforin) | IC50 (SHP1) [nM] | IC50PTP/IC50SHP2 SHP1 (SHP1) | IC50 (MEG2) [nM] | IC50PTP/IC50SHP2 MEG2 (MEG2) | IC50 (PRL2) [nM] | IC50PTP/IC50SHP2 PRL2 (PRL2) | IC50 (HePTP) [nM] | IC50PTP/IC50SHP2 HePTP (HePTP) | IC50 (PTP1B) [nM] | IC50PTP/IC50SHP2 PTP1B (PTP1B) | Compound |
| --- | --- | --- | --- | --- | --- | --- | --- | --- | --- | --- | --- | --- |
| > 20000 | 689.7 | 600 | 20.7 | 22100 | 762.1 | > 50000 | 1724.1 | 4500 | 155.2 | 3200 | 110.3 | O=C(Nc1ccc(-c2ccsc2)cc1)C(=O)Nc1ccc(-c2cc3cc(F)c(-c4nnn[nH]4)cc3n2C2CCC2)cc1 [Example 4] |
| 6210 | 182 | 110 | 3.2 | 1770 | 52.0 | > 100000 | 2941 | 950 | 27.9 | 390 | 11.4 | O=C(Nc1ccc(-c2cc3cc(F)c(-c4nnn[nH]4)cc3n2C2CCC2)cc1)C(=O)Nc1ccc(N2CCC3(CCOC3)CC2)cc1 [Example 67] |
| > 25000 | 520.8 | 383 | 8.0 | 890 | 18.5 | > 25000 | 520.8 | 1170 | 29.3 | 1500 | 31.3 | CC1(n2c(-c3ccc(NC(=O)C(=O)Nc4ccc(N5CCC6(CCOC6)CC5)cc4)cc3)cc3cc(F)c(-c4nnn[nH]4)cc32)CCC1 [Example 68] |
| 2440 | 33.8 | 100 | 1.3 | 1660 | 23.0 | > 100000 | 1388 | 1060 | 14.7 | 470 | 6.5 | O=C(Nc1ccc(-c2cc3cc(F)c(-c4nnn[nH]4)cc3n2C2CCC2)cc1)C(=O)Nc1ccc(N2CC3COCC3C2)cc1 (centres unmarked) [Example 114] |
| > 100000 | 709.2 | 320 | 2.3 | 2410 | 17.1 | > 100000 | 709.2 | 1330 | 9.4 | 1200 | 8.5 | Cn1cc(-c2ccc(NC(=O)C(=O)Nc3ccc(-c4cc5cc(F)c(-c6noc(=O)[nH]6)cc5n4C4CCC4)cc3)cc2)cn1 [Example 123] |
| > 100000 | 139.7 | 5620 | 7.8 | > 100000 | 139.7 | > 100000 | 139.7 | > 100000 | 139.7 | > 100000 | 139.7 | Cn1cc(-c2ccc(NC(=O)C(=O)Nc3ccc(-c4cc5cc(F)c(-c6nnc(C(F)(F)F)[nH]6)cc5n4C4CCC4)cc3)cc2)cn1 [Example 124] |
